Measurements as given in paper PMC12525028, “Blood–Brain Barrier Penetration of Novel 4-Trifluoromethyl-Coumarin Hybrids with Antibacterial Properties as Potential Brain Therapeutics in the Context of Spatially Diverse Healthcare Systems” (International Journal of Molecular Sciences, 2025).
In brackets after ≈: the same amount, converted by molar mass. Entries after “also recorded” stand apart in the source; their conditions may differ. Where two headings read alike, the source gives them in different places. Blank lines part the entries; values can stand above or below the compound they belong to.

Columns and labels:
[1] = in vivo; for crossing of the BBB/BCSFB (in words): iv
[2] = Transfer of coumarins from blood to CSF in sheep (third ventricle CSF, spectrophotometric); details: for Mean (μg/mL) Value with Centrifugation (average coumarin concentration in CSF) / Value (μg/mL) Without Centrifugation (average coumarin concentration in CSF): iv infusion 50 mg/500 mL over 15 min; for Mean (μg/mL) Value with Centrifugation (average coumarin concentration in CSF): CSF centrifuged; for Value (μg/mL) Without Centrifugation (average coumarin concentration in CSF): CSF not centrifuged; for crossing of the BBB/BCSFB (in words) / metabolism after crossing the BBB/BCSFB (in words) / transfer to the CSF (coumarin concentration level higher than 0): sheep; for crossing of the BBB/BCSFB (in words): iv administration; for metabolism after crossing the BBB/BCSFB (in words): from regression and absorbance curves; for change in CSF concentration level after centrifugation: paired data before/after centrifugation; for transfer to the CSF (coumarin concentration level higher than 0): after centrifugation of CSF
[3] = MTT cytotoxicity assay; details: mouse; for viability at 24 h, 0.5 µg/mL: cell viability, BALB/c-3T3, 0.5 µg/mL, MTT
[4] = MTT cytotoxicity assay; details: mouse, αT3-1 pituitary gonadotrope cells; for viability at 24 h, 0.5 µg/mL: cell viability, αT3-1, 0.5 µg/mL, MTT
[5] = in vitro; details: mouse, cell viability, BALB/c-3T3, 0.5 µg/mL, MTT
[6] = in vitro; details: mouse, cell viability, αT3-1, 0.5 µg/mL, MTT
[7] = Mass spectrometric determination of coumarin 2 in sheep CSF (ESI, positive mode); type: in vivo; details: sheep CSF after administration of compound 2, sodiated ion
Experimental: All reagents and solvents were purchased from Sigma-Aldrich (Saint Louis, MI, USA). All solvents were of analytical grade and were used without prior distillation. Merck silica gel 60 F254 plates were used for TLC (Thin-Layer Chromatography) analysis. The crude reaction mixtures were purified using column chromatography on Merck silica gel 60/230–400 mesh (Rahway, NJ, USA), with an appropriate mixture of hexanes and ethyl acetate as eluent. Nuclear magnetic resonance (NMR) spectra were performed on a Varian apparatus (Varian, Saint Louis, MI, USA) (400 MHz) and (500 MHz); the mass spectrometer was from Waters Company, Milford, MA, USA. Chemical shifts are expressed in ppm and the coupling constant (J) is expressed in Hz using TMS as an internal standard. […] Cerebrospinal fluid (CSF) samples were analyzed for the presence of the investigated coumarin derivative 2 using a SCIEX API 3000 triple quadrupole mass spectrometer (Science, Engineering, and Technology (SCIEX, Concord, ON, Canada)) equipped with an electrospray ionization (ESI) source operated in positive ion mode.
Sheep CSF samples were collected and stored at −80 °C until further analysis. […] The samples were analyzed using a SCIEX API 3000 triple quadrupole mass spectrometer equipped with an electrospray ionization (ESI) source operating in positive ion mode. […]

[8] = Solubility in water (observation); type: physicochemical
[9] = BALB/c-3T3 mouse embryonic fibroblast cells

Structure (SMILES): CCOC(=O)CNC(=O)C(Nc1ccc2c(C(F)(F)F)cc(=O)oc2c1)c1ccc(Br)cc1 (centres unmarked) [Compound 7]
metabolism after crossing the BBB/BCSFB (in words) [1]: partially metabolized | transfer to the CSF (coumarin concentration level higher than 0) [1]: statistically confirmed | crossing of the BBB/BCSFB (in words) [1]: crossed the BBB/BCSFB

Mean (μg/mL) Value with Centrifugation (average coumarin concentration in CSF) ([2]; sheep CSF): 2 (+/−5) μg/mL | Value (μg/mL) Without Centrifugation (average coumarin concentration in CSF) ([2]; sheep CSF): 10 (+/−5) μg/mL
Structure (SMILES): COc1ccc(CNC(=O)C(c2ccc(OC)cc2)N(C(=O)CCCC(=O)O)c2ccc3c(C)cc(=O)oc3c2)cc1 (centres unmarked) [Compound 1]

Value (μg/mL) Without Centrifugation (average coumarin concentration in CSF) ([2]; sheep CSF): 5 (+/−5) μg/mL | crossing of the BBB/BCSFB (in words) [2]: crossed the BBB/BCSFB | metabolism after crossing the BBB/BCSFB (in words) [2]: partially metabolized
Structure (SMILES): CCOC(=O)CNC(=O)C(c1ccc(OC)cc1)N(C(=O)Cc1ccccc1)c1ccc2c(C)cc(=O)oc2c1 (centres unmarked) [Compound 5]
viability at 24 h, 0.5 µg/mL [3, 9]: > 96% | viability at 24 h, 0.5 µg/mL [4]: > 96%

Mean (μg/mL) Value with Centrifugation (average coumarin concentration in CSF) ([2]; sheep CSF): 20 (+/−5) μg/mL | Value (μg/mL) Without Centrifugation (average coumarin concentration in CSF) ([2]; sheep CSF): 30 (+/−5) μg/mL | change in CSF concentration level after centrifugation ([2]; sheep CSF): significant decrease | transfer to the CSF (coumarin concentration level higher than 0) [2]: statistically confirmed
Structure (SMILES): COc1ccc(CNC(=O)C(c2ccc(Br)cc2)N(C(=O)Cc2ccccc2)c2ccc3c(C)cc(=O)oc3c2)cc1 (centres unmarked) [Compound 8]
IC50 at 24 h [3, 9]: 1.71 µg/mL (≈ 2.73 µM) | IC50 at 24 h [4]: 1.71 µg/mL (≈ 2.73 µM) | crossing of the BBB/BCSFB (in words) [2]: penetrated the blood–brain barrier to the greatest extent; also recorded: capable of crossing the blood–brain barrier

Structure (SMILES): CCOC(=O)CNC(=O)C(Nc1ccc2c(C(F)(F)F)cc(=O)oc2c1)c1ccc(OC)cc1 (centres unmarked) [Compound 4]
viability at 24 h, 0.5 µg/mL [5]: > 96% | viability at 24 h, 0.5 µg/mL [6]: > 96%

Value (μg/mL) Without Centrifugation (average coumarin concentration in CSF) ([2]; sheep CSF): 2.5 (+/−5) μg/mL | crossing of the BBB/BCSFB (in words) [2]: crossed the BBB/BCSFB | metabolism after crossing the BBB/BCSFB (in words) [2]: partially metabolized
Structure (SMILES): COc1ccc(CNC(=O)C(c2ccccc2)N(C(=O)CCCC(=O)O)c2ccc3c(C)cc(=O)oc3c2)cc1 (centres unmarked) [Compound 3]
viability at 24 h, 0.5 µg/mL [3, 9]: > 96% | viability at 24 h, 0.5 µg/mL [4]: > 96%

Structure (SMILES): CCOC(=O)CNC(=O)C(Nc1ccc2c(C(F)(F)F)cc(=O)oc2c1)c1ccccc1 (centres unmarked) [Compound 2]
detection in CSF by ESI-MS [7]: presence of the compound as its sodiated ion | solubility in water (in words) [8]: does not dissolve in water | crossing of the BBB/BCSFB (in words) [1]: penetrated the blood–brain barrier to the greatest extent | protein binding (in words) ([1]; sheep): binds well to proteins | IC50 at 24 h [3]: 6.58 µg/mL (≈ 14.7 µM) | IC50 at 24 h [4]: 6.58 µg/mL (≈ 14.7 µM) | Value (μg/mL) Without Centrifugation (average coumarin concentration in CSF) ([2]; sheep CSF): 350 (+/−5) μg/mL | average coumarin concentration in CSF after centrifugation ([2]; sheep CSF, iv infusion, after centrifugation): 118.32 µg/mL | average coumarin concentration in CSF before centrifugation ([2]; sheep CSF, iv infusion, before centrifugation): 355.85 µg/mL | change in CSF concentration level after centrifugation ([2]; sheep CSF): significant decrease | transfer to the CSF (coumarin concentration level higher than 0) [2]: statistically confirmed

Value (μg/mL) Without Centrifugation (average coumarin concentration in CSF) ([2]; sheep CSF): 8 (+/−5) μg/mL
Structure (SMILES): Cc1cc(=O)oc2cc(/N=C/c3ccccc3)ccc12 [Compound 6]
viability at 24 h, 0.5 µg/mL [3, 9]: > 96% | viability at 24 h, 0.5 µg/mL [4]: > 96%
